Source: patent US20110124569A1, “MACROCYCLIC COMPOUNDS, PROTEASE INHIBITION, AND METHODS OF TREATMENT” (priority 2007, published 2011)
Converted amounts (≈) assume the structure as drawn. Where two headings read alike, the source gives them in different places.

How the values were obtained:
[1] = molecular target: T1, porcine pancreatic elastase (Sus scrofa, UniProt P00772); test: Porcine pancreatic elastase inhibition assay; type: biochemical; conditions: for IC50: substrate concentration near Km (1.5 mM N-succinyl-Ala-Ala-Ala-p-nitroanilide), read-out: Porcine pancreatic elastase inhibitory activity IC50
T1 construct: purchased EPC EC134
Description: (§1) The test samples for 1-6 were prepared in DMSO by (log/2)-fold dilutions ranging from 1 mM to 100 pM. All assays were performed in triplicate. Phenylmethylsulfonyl fluoride (PMSF) was used as a positive control in the enzyme assays.
To test the inhibition of porcine pancreatic elastase (Elastase-high purity; EPC, EC134), 75 μg/mL solution of elastase was prepared using Tris-HCl (pH 8.0). […] After preincubation of 165 μL of Tris-HCl (pH 8.0), 10 μL of elastase solution, and 10 μL of test samples in DMSO (5% final concentration) in a microtiter plate at 30° C. for 20 min, 15 μL of substrate solution (1.5 mM final concentration) was added to the mixture. The increase in absorbance was measured for 30 min at intervals of 5 min at 405 nm. Competitive binding was determined by plotting enzyme activity against substrate concentrations in the presence of different inhibitor concentrations (Lineweaver-Burk plot).

[2] = molecular target: T2, α-chymotrypsin (bovine pancreas) (Bos taurus, UniProt P00766); test: α-Chymotrypsin inhibition assay; type: biochemical; conditions: substrate concentration near Km (0.75 mM N-succinyl-Gly-Gly-Phe-p-nitroanilide)
T2 construct: purchased Sigma C4129
Description: as §1
(§2) Inhibitory activity against α-chymotrypsin (bovine pancreas; Sigma, C4129) was determined as follows. A 1-mg/mL solution of chymotrypsin was prepared in assay buffer (50 mM Tris-HCl/100 mM NaCl/1 mM CaCl2, pH 7.8). […] The increase in absorbance was measured for 30 min at intervals of 5 min at 405 nm.

trypsin = conditions: cited from earlier work
chymotrypsin = conditions: literature, Amp-containing compound; cited from earlier work
elastase = elastase (Sus scrofa, UniProt P00772); conditions: literature, cited from earlier work
[3] = system: HT29 colon adenocarcinoma cells; test: MTT-based cell viability assessment; conditions: highest concentration tested (50 μM)
Description: The effects of compounds 5 and 6 on the proliferation of cancer cells was also assessed.

[4] = molecular target: T3, trypsin from porcine pancreas (Sus scrofa, UniProt P00761); test: Trypsin inhibition assay; type: biochemical
T3 construct: purchased Sigma T0303
Description: as §1, §2
Inhibitory activity against trypsin was assayed as described above for chymotrypsin, using trypsin from porcine pancreas (Sigma, T0303) and Nα-benzoyl-DL-arginine-4-nitroanilide hydrochloride as the substrate solution.

T1 sequence (P00772 27-266): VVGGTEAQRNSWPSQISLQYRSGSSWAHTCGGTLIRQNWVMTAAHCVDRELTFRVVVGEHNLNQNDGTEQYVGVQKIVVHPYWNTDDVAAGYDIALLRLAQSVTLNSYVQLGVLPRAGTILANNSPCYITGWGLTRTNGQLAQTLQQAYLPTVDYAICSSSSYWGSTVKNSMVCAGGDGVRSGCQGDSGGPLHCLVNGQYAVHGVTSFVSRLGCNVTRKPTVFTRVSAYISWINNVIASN
Sequence of elastase (P00772 27-266): as above
T3 sequence (P00761 9-231): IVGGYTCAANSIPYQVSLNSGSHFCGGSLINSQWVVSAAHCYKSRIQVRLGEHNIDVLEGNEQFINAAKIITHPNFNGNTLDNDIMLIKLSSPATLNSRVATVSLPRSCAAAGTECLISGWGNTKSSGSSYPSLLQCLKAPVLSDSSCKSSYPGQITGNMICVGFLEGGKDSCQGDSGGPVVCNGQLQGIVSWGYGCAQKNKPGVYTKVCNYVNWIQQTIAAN

Compound `C/C=C1\NC(=O)[C@@H](NC(=O)[C@H](CCc2ccc(O)cc2)NC(=O)[C@H](C)NC(=O)[C@H](O)COS(=O)(=O)O)[C@@H](C)OC(=O)[C@H](C(C)C)NC(=O)[C@H](Cc2ccc(O)cc2)N(C)C(=O)[C@H](Cc2ccccc2)N2C(=O)[C@H](CC[C@H]2OC)NC1=O` [Compound 2, Lyngbyastatin 6] has an IC50 [1] of 3.3 ± 0.8 nM and an IC50 [2] of 2500 ± 800 nM.
For `CCCCCC(=O)N[C@@H](CC(=O)O)C(=O)N[C@@H]1C(=O)N[C@@H](CCCCN)C(=O)N[C@H]2CC[C@@H](O)N(C2=O)[C@@H]([C@@H](C)CC)C(=O)N(C)[C@@H](Cc2ccc(O)cc2)C(=O)N[C@@H](C(C)C)C(=O)O[C@@H]1C` [micropeptin SD944], the IC50 against trypsin (trypsin; literature value) is given as 8.0 µg/mL (≈ 8.46 µM).
For oscillapeptin C, the chymotrypsin inhibition (chymotrypsin) is given as “still inhibits chymotrypsin” and the elastase inhibition (elastase; Amp-containing compound) is given as “does not inhibit elastase”.
In the case of planktopeptin BL843, the “protease-inhibitory activity compared with the other planktopeptins” value (elastase) is given as “one order of magnitude lower”.
With `C/C=C1\NC(=O)C(NC(=O)C(CCC(N)=O)NC(=O)CCC)C(C)OC(=O)C(C(C)C)NC(=O)C(Cc2ccc(O)cc2)N(C)C(=O)C(Cc2ccccc2)N2C(=O)C(CCC2O)NC1=O` (stereo not shown) [Compound 4, somamide B, reference compound] the IC50 [1] was 9.5 ± 5.2 nM and the IC50 [2] was 4200 ± 500 nM.
With `CCCC(=O)N[C@H](C(=O)N[C@@H]1C(=O)N[C@@H](CCCCN)C(=O)N[C@H]2CC[C@@H](O)N(C2=O)[C@@H]([C@@H](C)CC)C(=O)N(C)[C@@H](Cc2ccc(OC)c(Br)c2)C(=O)N[C@@H](C(C)C)C(=O)O[C@@H]1C)C(C)C` [Compound 6, Kempopeptin B] the “effect on growth of HT29 cells” value [3] was “did not significantly affect the growth”, the “trypsin inhibition, selectivity versus elastase and chymotrypsin” value [4] was “selective in vitro trypsin inhibition” and the “trypsin inhibition, selectivity versus elastase and chymotrypsin” value ([4]; listed as kempopeptin B) was “inhibited only trypsin activity”.
In the case of `CC(=O)N1CCC[C@H]1C(=O)N[C@H](C(=O)N[C@@H]1C(=O)N[C@@H](CC(C)C)C(=O)NC2CC[C@@H](O)N(C2=O)[C@@H](Cc2ccccc2)C(=O)N(C)C(Cc2ccc(O)cc2)C(=O)N[C@@H](C(C)C)C(=O)O[C@@H]1C)[C@@H](C)O` (stereo partly shown) [Compound 5, Kempopeptin A], the “effect on growth of HT29 cells” value [3] is reported as “did not significantly affect the growth” and the “elastase inhibition and selectivity over chymotrypsin” value [1] is reported as “inhibited elastase with a slight selectivity over chymotrypsin”.
In the case of `C/C=C1\NC(=O)C(NC(=O)C(CCc2ccc(O)cc2)NC(=O)C(C)NC(=O)C(O)COS(=O)(=O)O)C(C)OC(=O)C(C(C)C)NC(=O)C(Cc2ccc(O)cc2)N(C)C(=O)C(Cc2ccccc2)N2C(=O)C(CCC2O)NC1=O` (stereo not shown) [lyngbyastatin 4], the “trypsin activity upon treatment, previous findings” value (trypsin; previous publication (J. Nat. Prod. 2007, 70, 124-127)) is listed as “unaffected”.
Compound `C/C=C1\NC(=O)C(NC(=O)C(CCc2ccc(O)cc2)NC(=O)C(C)NC(=O)C(O)CO)C(C)OC(=O)C(C(C)C)NC(=O)C(Cc2ccc(O)cc2)N(C)C(=O)C(Cc2ccccc2)N2C(=O)C(CCC2O)NC1=O` (stereo not shown) [Compound 1, Lyngbyastatin 5] has an IC50 [1] of 3.2 ± 2 nM and an IC50 [2] of 2800 ± 300 nM.
